Experimental data reported in patent US20190008983A1, “EXTRACELLULAR DRUG CONJUGATES TARGETING CD20” (priority 2015, published 2019).
Read-outs that look alike come from different tables or passages of the source.

Assays:
[1] = test system: CD20 positive cell line SUDHL4; experiment: Cell proliferation/cytotoxicity assay (CellTiter-Glo) on SUDHL4 cells; type: cell-based, Human; conditions: for % viab., SUDHL4: figure in brackets after EC50; for EC50: read-out: EC50 in picoM, SUDHL4
Experimental: (§1) These cell lines are the Ramos (Human Burkitt's lymphoma) and SUDHL4 (Non-Hodgkin lymphoma) cell lines. […] Cell viability was then analyzed using the CellTiter-Glo luminescent cell viability assay and standard package insert protocol of the manufacturer (Promega, Madison, Wis.).

[2] = test system: CD20 positive cell line Ramos; experiment: Cell proliferation/cytotoxicity assay (CellTiter-Glo) on Ramos cells; type: cell-based, Human; conditions: for % viab., Ramos: figure in brackets after EC50; for % viab., Ramos / EC50: 72 hours incubation; for EC50: CellTiter-Glo, Tables 1-2, read-out: EC50 in picoM, Ramos
Experimental: as §1

[3] = 72 hours incubation, CellTiter-Glo, Tables 1-2

| SMILES | EC50 [1, 3] | EC50 [2] | also measured |
| --- | --- | --- | --- |
| C[C@]12CC[C@H](OC3OC[C@H](N)[C@@H](O)[C@@H]3O)C=C1CC[C@@H]1[C@@H]2CC[C@]2(C)[C@@H](c3ccc(=O)oc3)CC[C@]12O (stereo partly shown) [CEN09-106] |  |  | % viab., SUDHL4 ([1]; 72 hours incubation): 0%; % viab., Ramos [2]: 0%; activity on Ramos cells in FIG. 8 study ([2]; in the absence of complement, FIG. 8): significant but much less potent activity |
| C[C@]12CC[C@H](O)C=C1CC[C@@H]1[C@@H]2CC[C@]2(C)[C@@H](c3ccc(=O)oc3)CC[C@]12O [Scillarenin, reference compound] |  |  | EC50 ([1]; Homo sapiens, SU-DHL-4, 72 hours incubation, CellTiter-Glo, Tables 1-2): 18 nM |
| C[C@]1(OC(=O)NCCCN2CCN(CCCN)CC2)CC[C@@]2(C)[C@H](CC[C@@H]3[C@@H]2CC[C@]2(C)[C@@](C)(C4=CC(=O)OC4)CC[C@]32O)C1 [CEN-381] | > 50 nM | > 50 nM |  |
| C[C@]12CC[C@H](O)C[C@H]1CC[C@@H]1[C@@H]2CC[C@]2(C)[C@@H](C3=CC(=O)OC3)CC[C@]12O [Digitoxigenin, reference compound] |  |  | EC50 ([1]; Homo sapiens, SU-DHL-4, 72 h): > 50 nM |
| C[C@]12CC[C@H](OC(=O)NCCCNCCCN)C[C@H]1CC[C@@H]1[C@@H]2CC[C@]2(C)[C@H](c3ccc(=O)oc3)CC[C@]12O [CEN-373] | 5.9 nM | 4 nM |  |
| CN(CCCN)CCCNC(=O)O[C@H]1CC[C@@]2(C)[C@H](CC[C@@H]3[C@@H]2CC[C@]2(C)[C@H](c4ccc(=O)oc4)CC[C@]32O)C1 [CEN-372] | 4.4 nM | 3.6 nM |  |
| C[C@]12CC[C@H](O)C[C@H]1CC[C@@H]1[C@@H]2CC[C@]2(C)[C@@H](c3ccc(=O)oc3)CC[C@]12O [Bufalin, reference compound] |  |  | EC50 ([1]; Homo sapiens, SU-DHL-4, 72 h): 16 nM |
| CC12CCC(OC(=O)N3CCNCC3)CC1CCC1C2CCC2(C)C(c3ccc(=O)oc3)CCC12O (stereo not shown) [CEN-371] | 11 nM | 7.81 nM | % viab., SUDHL4 ([1]; 72 hours incubation): 0%; % viab., Ramos [2]: 0% |
